Assay [1] has as its system detached leaf segments of Triticum aestivum cv. Hereward. The experiment in a line: senescence bioassay on detached wheat leaf segments in dark conditions (chlorophyll retention). On the procedure:
(§1) Seeds of winter wheat, Triticum aestivum cv. Hereward, were washed under running water for 24 hours and then sown on vermiculite soaked with Knop's solution. They were placed in the growth chamber at 25° C. with a 16/8 h light period at 50 μmol·m^−2·s^−1. After 7 days, the first leaf was fully developed and the second leaf had started to grow. A tip section of the first leaf, approximately 35 mm long, was removed from 5 seedlings and trimmed slightly to a combined weight of 100 mg. The basal ends of the five leaf tips were placed in the wells of a microtiter polystyrene plate containing 150 μL of the tested derivative solution each. The entire plate was inserted into a plastic box lined with paper tissues soaked in distilled water to prevent leaf sections from drying out. After 96 h incubation in the dark at 25° C., the leaves were removed and chlorophyll extracted by heating at 80° C. for 10 min in 5 mL of 80% ethanol (v/v). The sample volume was then restored to 5 mL by the addition of 80% ethanol (v/v). The absorbance of the extract was recorded at 665 nm. In addition, chlorophyll extracts from fresh leaves and leaf tips incubated in deionised water were measured. The results are means of five replicates and the entire test was repeated twice. […] The compounds to be tested were dissolved in dimethylsulfoxide (DMSO) and the solution brought up to 10^−3M with distilled water. […] The activity obtained for 10^−4 M Kin was postulated as 100%.

Assay [2] relates to cytokinin-dependent tobacco callus Nicotiana tabacum L. cv. Wisconsin 38. The experiment in a line: cytokinin-dependent tobacco callus bioassay (plant cell division). It counts as cell-based. How it is done: Stimulatory effect of newly prepared derivatives was tested using cytokinin-dependent tobacco callus. The cytokinin-dependent tobacco callus Nicotiana tabacum L. cv. Wisconsin 38 was maintained at 25° C. in darkness on modified MS medium, containing per 1 liter: 4 μmol of nicotinic acid, 2.4 μmol of pyridoxine hydrochloroide, 1.2 μmol of thiamine, 26.6 μmol of glycine, 1.37 μmol of glutamine, 1.8 μmol of myo-inositol, 30 g of sucrose, 8 g of agar, 5.37 μmol of NAA and 0.5 μmol of the compound tested. Subcultivation was carried out every three weeks. Fourteen days before the bioassay, the callus tissue was transferred to the media without the compound tested. The biological activity was determined from the increase of the fresh callus weight after four weeks of cultivation. Six replicates were prepared for each concentration of the compound tested and the entire test was repeated twice. […] The compounds to be tested were dissolved in dimethylsulfoxide (DMSO) and the solution brought up to 10^−3 M with distilled water. […] From the obtained data, the concentration with the highest activity was selected for each compound tested. Relative activity of the compound at this concentration was calculated (Table 2). The activity obtained for 10^−6 M of the N9-unsubstituted parent cytokinins Kin and 10^−5 M iP, respectively, was postulated as 100% biological activity. […] For comparison, compounds bearing halogenbutyl substituent in position 9 were prepared and tested.
Cytokinins are known to have stimulatory effects on cell proliferation in their optimal concentrations, however typically in the concentrations exceeding 10 μM their effect on cell division turns into inhibitory (Holub et al., Plant Growth Regul. 26, 109-115, 1998). Therefore the effect of the high concentrations of the newly prepared derivatives was tested using cytokinin-dependent tobacco callus described in Example 6. The novel compounds 1, 2 and 4 were tested in high concentrations (1-100 μM) and the activities were compared with activities of their N9-unsubstituted parent cytokinins.

In the next assay the test system is VP14 gene. The experiment in a line: expression of VP14 stress gene in intact maize plants (RT-PCR). It counts as in vivo, Zea mays. The settings on record: 5 μM. On the procedure:
Abscisic acid has a direct effect on up-regulation of genes involved in stress responses (Tan et al., 1997, Proc Natl Acad Sci USA, 94, 12235-40). 5-days-old maize seedlings were carefully transferred from substrate to nutrient solution supplemented with tested compound in 5 μM concentration and were cultivated for another 3 days. Transcript copy number of VP14 gene was determined in roots and leaves of treated plants independently by method of reverse transcription polymerase chain reaction.

The test system of assay [3] is Zea mays cv. CELLUX seedlings. Description: root growth and development of maize seedlings in hydroponics. It counts as in vivo. The settings on record: FIG. 3. How it is done:
To investigate in vivo effect of the new derivatives on the root growth and development, maize seeds (Zea mays cv. CELLUX, Morseva, Czech Republic) were imbibed in tap water and germinated in dark on a wetted filter paper. After 2 days, the germinated seedlings were transferred to aerated hydroponic tanks filled with Hoagland's nutrient solution (fifteens per one liter of Hoagland solution). The plants were grown in a chamber with 16 hrs light (250 μm-2 s-1) at 27° C. and 8 hrs dark period at 20° C. The nutrient solution was supplemented with 5 μM and 10 μM concentration of 6-furfurylamino-9-(2-chloroethyl)purine or 5 μM cytokinin kinetin (Kin). All solutions used for cytokinin treatment including negative control contained DMSO in final concentration of 0.01%.

Assay [4] deals with membrane lipid peroxidation in detached leaves of Triticum aestivum cv. Hereward. Description: membrane lipid peroxidation (MDA, TBA method) in detached wheat leaves during dark senescence. How it is done:
A typical symptom associated with senescence as a direct consequence of increased reactive oxygen species is lipid peroxidation. Therefore the levels of MDA, a decomposition product of lipid peroxidation, were measured in detached wheat leaves that were exposed to the prepared novel derivatives and kinetin for four days in the dark as described in Example 7. MDA levels were measured using a thiobarbituric acid (TBA) method. In detail, 100 mg of fresh plant material was homogenized by high speed shaking in a ball mill (MM301, Retsch, Germany) with 1 mL of 80% methanol. The crude extract was centrifuged at 10,000×g for 5 min, and 100 μL aliquot of supernatant was vortexed with 100 μL of 0.5% (w/v) TBA containing 0.1% (w/v) trichloroacetic acid, and the resulting solution was then incubated for 30 min at 95° C. The samples were quickly cooled on ice and recentrifuged for 5 min at 1000×g. The absorbance of supernatant was measured at 532 nm with background subtraction at 600 nm and the amount of MDA-TBA complex was calculated from the coefficient of absorbance 155 mM^−1 cm^−1.

For assay [5], the system named is detached leaf segments of Triticum aestivum cv. Hereward. The experiment in a line: senescence bioassay on detached wheat leaf segments in light conditions (chlorophyll retention). On the procedure:
as §1
The ability of the novel compounds to retard chlorophyll degradation in detached wheat leaves was tested also in the light conditions. The experiment was performed as described in Example 7 with modifications as follows—the incubation of the leaves with the compounds was done in the constant light (100 μmol·m^−2·s^−1) at 22° C.

Where [6] appears, read: 3 days, related to untreated control = 1.

Turning to `ClCCn1cnc2c(NCc3ccco3)ncnc21` [Compound 1, 6-furfurylamino-9-(2-chloroethyl)purine], the “concentration with highest activity” value in assay [1] (96 h, 25° C., chlorophyll A665) is reported as 10^−4 mol. l^−1; in assay [5] (constant light 100 μmol·m^−2·s^−1, 22° C.), 10^−5 mol. l^−1. Moreover, the “activity (%) [10^−4 mol. l^−1 Kin = 100%]” value in assay [1] (at the concentration with highest activity) is recorded as 120 (±15) %; in assay [5] (light, at the concentration with highest activity) it was 116 (±7) %. Besides, the “activity (%) [10^−6 mol. l^−1 Kin = 100%]” value in assay [2] (at the concentration with highest activity, relative to 10^−6 M Kin) was 120 (±6) %. For the same compound, the “effect on callus growth (cell proliferation) in high concentrations” value in assay [2] (concentrations exceeding 10 μM, up to 100 μM, FIG. 1) is “still kept their stimulatory effect”. Besides, the “Relative amount of transcripts, leaf” value with VP14 gene (setting [6]) was 1.1 (±0.3). In addition, the “Relative amount of transcripts, root” value with VP14 gene (setting [6]) was 0.4 (±0.1). In addition, the “effect on VP14 expression / stress response” value with VP14 gene (in words) was “does not induce any stress response”. Besides, the “root and shoot phenotype of maize plants” value is “almost identical to DMSO treated negative control” in assay [3] (5 μM in nutrient solution); “only slightly reduced length of primary and lateral roots” in assay [3] (10 μM in nutrient solution). Further, the “level of membrane lipid peroxidation reduced to” value in assay [4] (dark senescence, compared to untreated control) came to 67%. Also, the MDA in assay [4] (detached wheat leaves, four days in the dark, untreated control 18.9 (±2.2)) was 12.8 (±1.0) nmol/g FW.

The values are drawn from patent US9220269B2, “Use of 6-substituted 9-halogenalkyl purines for regulation of growth and development of whole plants, plant cells and plant organs; novel 6-substituted 9-halogenalkyl purines” (UNIVERZITA PALACKEHO V OLOMOUCI, priority 2010, dated 2015).
